For assay [1], the system named is GICs (glioma initiating cells) / GBM neurospheres. Description: Self-renewal assay of GBM neurospheres (GICs derived from patients). Format: cell-based, human. The following applies: for number of newly formed neurospheres / total number of cells: GBM1, GBM2, GBM3 neurosphere cells, 7 days in the absence of growth factors, 100 pM TGFβ1 or 20 ng/ml LIF. The protocol: FIG. 1. Effect of TGFβ on the self-renewal of GIC derived from patients. (A) Representative images of PCTCs and neurospheres of GBM generated from samples of 3 different patients with GBM (GBM1, GBM2, GBM3). (B) Musashi-1 (Msi-1), Sox2, Nestin and β-actin were determined by means of RT-PCR analysis of PCTCs and neurospheres of 3 samples of human GBM. (C) 100,000 neurosphere (nsph.) or PCTC cells obtained from samples of GBM1, GBM2 and GBM3 tumors were intracranially inoculated in three Balbc nu/nu mice in each case. Magnetic resonance imaging (MRI) studies were performed on days 30-40 in each mouse. The images represent an example of mice inoculated with neurosphere or PCTC cells obtained from GBM1. The mice were weighed twice a week. The graph represents mice inoculated with cells derived from GBM1. (D and E) Neurosphere cells of the indicated GBMs were incubated in the absence of growth factors with 100 pM TGFβ1 and/or 2 μM TβRI inhibitor for 7 days and the number of newly formed neurospheres (D) and the total number of cells (E) were determined. (F) Representative images of GBM1 neurospheres treated as indicated in D and E.
FIG. 6. LIF mediates the increase of self-renewal of GIC by TGFβ. (A, B) GBM1, GBM2 and GBM3 neurosphere cells were treated with 100 pM TGFβ1, 20 ng/ml LIF and/or anti-LIF neutralizing antibody and 0.5 pM P6 in the absence of EGF and FGF and the number of newly formed neurospheres (A) or the total number of cells (B) was determined. (C) Representative images of GBM1 neurospheres treated as indicated in A and B.
The self-renewal of the neurospheres was evaluated by seeding an identical number of cells at a very low density in wells of a 96-well plate. The cells were treated, in the absence of growth factors, with the indicated compounds and the total number of new neurospheres formed after 7 days in culture was counted (Lee et al. (2008) Cancer Cell 13, 69-80; Reynolds and Weiss, (1996) Dev Biol 175, 1-13; Seaberg and van der Kooy, (2002) J Neurosci 22, 1784-1793).
It was decided to evaluate the effect of TGFβ on the capacity for self-renewal of GICs following a well described protocol based on the capacity of GICs to generate neurospheres (Reynolds and Weiss, 1996, Dev Biol. 175:1-13; Seaberg and van der Kooy, 2002, J Neurosci 22:1784-1793). The neurospheres derived from patients were disassociated into individual cells, treated with TGFβ or left untreated for 7 days in the absence of growth factors and the newly formed neurospheres and the total number of cells were counted. Following this protocol, the effect of TGFβ on the capacity for self-renewal of the GICs derived from three different patients was evaluated. […] These effects were blocked when an TGFβ I receptor inhibitor (TβRI) was added at the same time as TGFβ.
It was decided to assess whether LIF and JAK-STAT pathway mediated the increase of self-renewal of GICs by TGFβ. For this purpose, the neutralizing antibody against LIP and P6 was used to specifically block the effect of the secreted LIP on cells treated with TGFβ. The neurospheres were disassociated into individual cells and were treated with TGFβ, recombinant LIF, anti-LIF antibody and/or P6. The newly formed neurospheres and the total number of cells were counted. […] The treatment with the neutralizing antibody of LIP decreased the induction of the self-renewal of GICs by TGFβ.

Assay [2] concerns STAT3 phosphorylation (JAK-STAT pathway). Description: p-STAT3 Western blotting in GBM1 neurospheres. Conditions: for phosphorylation of STAT3: 20 ng/ml LIF (time course) or 100 pM TGFβ1 for 4 hours. Format: cell-based, human. How it is done: FIG. 5. TGFβ induces the LIF-JAK-STAT pathway in GEM neurospheres derived from patients. (A) The levels of p-STAT3 and STAT3 were determined by means of Western blotting of neurospheres of the sample of GBM1 treated with 20 ng/ml LIF for the indicated time periods. (B) The neurospheres of the sample of GBM1 were treated with 20 ng/ml LIF and/or 0.5 pM P6 for 15 minutes and the levels of total p-STAT3 and STAT3 were determined by means of Western blotting. (C) The neurospheres of the sample of GBM1 were treated with 100 pM TGFβ1 or the 2 pM TβRI inhibitor for 4 hours in the absence of EFG and FGF and the levels of p-STAT3, STAT3, p-Smad2, Smad2 and α-tubulin were determined by means of Western blotting. (D) the neurospheres of the sample of GBM1 were treated with 100 pM TGFβ1, 0.5 μM P6 or the blocking antibody against LIF for 4 hours in the absence of EGF and FGF and the levels of total p-STAT3 and STAT3 were determined by means of Western blotting.
Genomic DNA of U373MG was used to amplify the −634/+32 region of the human LIF promoter which was cloned into the pGL2-basic luciferase vector. The deletion constructs (−267/+32), and (−73/+32) were generated by means of digestion of the construct (−634/+32). Two point mutations were introduced in positions −183 bp and −184 bp in the construct (−267/+32) to interrupt the Smad binding element (SBE) and generate the construct (−267/+32) mutSBE. TGFβ1, TGFβ2, TGFβ3 (R&D Systems), TβRI inhibitor (SB431542, Tocris), LIF (Chemicon), the neutralizing antibodies against LIF (R&D), JAK inhibitor (tetracyclic pyridone 6 (P6) Calbiochem), the assembly of SMART siRNAs targeted to Smad2, Smad3 and Smad4 (Dharmacon), and the control siRNA siGlo (Dharmacon) were used at the indicated concentrations. The antibodies specific against p-Smad2, Smad2, p-STAT3 (p-Tyr705) and total STAT3 (Cell Signalling) and against Smad2, Smad3 and Smad4 (Hata et al., (2000) Cell 100, 229-240) were used for Western blotting.
In order to distinguish whether the LIF signaling pathway is functional in GEM neurospheres, the neurospheres were treated with recombinant LIF and the levels of phosphorylation of the downstream substrate of the LIF receptor complex, STAT3, were determined. […] Furthermore, the induction of p-STAT3 was prevented by the presence of a pharmacological JAK-specific, tetracyclic pyridone 6 (P6) (Pedranzini et al., 2006, Cancer Res, 66: 9714-9721; Thompson et al., 2002, Bioorg Med Chem Lett, 12:1219-1223) (FIG. 5B). […] It was decided to assess whether LIP was mediating the induction of p-STAT3 by TGFβ. For this purpose, a neutralizing antibody against LIF was used to specifically block the effect of secreted LIP on cells treated with TGFβ. The presence of the neutralizing antibody of LIP decreased the induction of p-STAT3 by TGFβ. Furthermore, the levels of p-STAT3 in cells treated with TGFβ were repressed by means of the treatment with P6 (FIG. 5D).
(In general: Immunoblotting shows a protein as a band on a membrane.)

In the case of `NC(=O)c1ccc(-c2nc(-c3ccc4c(c3)OCO4)c(-c3ccccn3)[nH]2)cc1` [TβRI inhibitor, SB431542, reference compound], the “effect of the isolated inhibitor on number of neurospheres and total number of cells” value in assay [1] (2 μM TβRI inhibitor without TGFβ, 7 days, absence of growth factors) is “no significant effect”. Further, the “effect on the induction of self-renewal of GICs by TGFβ (number of neurospheres, total number of cells)” value in assay [1] (added with 100 pM TGFβ1, 2 μM TβRI inhibitor, anti-LIF neutralizing antibody or 0.5 pM P6, absence of EGF and FGF) was “blocked”. In assay [2] (100 pM TGFβ1, 4 hours, absence of EGF and FGF, 2 pM TβRI inhibitor, 0.5 μM P6 or blocking antibody against LIF), the “effect on the induction of p-STAT3 by TGFβ” value is on record as “prevented that effect”.

In the case of “LIF: recombinant leukemia inhibitory factor, an IL-6 type cytokine (Chemicon)”, in assay [1], the “number of newly formed neurospheres” value was “increased” and the “total number of cells” value is recorded as “increased”. Also, in assay [2], the “phosphorylation of STAT3” value is given as “induced a quick phosphorylation of STAT3”.

On to “TGFβ: TGFβ1 (R&D Systems), used at 100 pM according to the figure legends”, for which, in assay [1], the “number of newly formed neurospheres” value is recorded as “significantly increased” and the “total number of cells” value is given as “increased”. For the same molecule, in assay [2], the “phosphorylation of STAT3” value is on record as “induced the phosphorylation of STAT3”.

The values above are taken from patent US11999782B2, “Therapeutic agents for the treatment of diseases associated with undesired cell proliferation” (Fundació Privada Institutció Catalana de Recerca I Estudis …, priority 2009, dated 2024).
